Columns and labels:
Human PARP-1 enzyme = target: T1, Human PARP-1 enzyme (Homo sapiens, UniProt P09874); assay: In vitro Scintillation Proximity Assay (SPA) for PARP-1 inhibitory activity; format: biochemical; details: read-out: in vitro SPA assay PARP-1 pIC50 (converted)
T1 construct: purchased Trevigen
How it was run: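 SPA assay: nicked-DNA-activated PARP-1 (0.1–0.2 μg/ml) ADP-ribosylates biotinylated histones (2 μg/ml) using [3H]-NAD+, 20 min at RT in Tris pH 8/DTT/MgCl2, stopped with 2 mM NAD+. Blank-subtracted cpm expressed as % control; IC50 by linear interpolation, reported as pIC50 (10−5 to 3×10−9 M tested).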

tubulin = assay: Tubulin polymerization assay; format: biochemical; design: key: a compound showing 0 to 50% inhibition at 20 μM is reported as score 1; Score 2 compounds are defined as compound showing more than 50% inhibition at 20 μM and less than 50% inhibition at 5 μM; a compound showing more than 50% inhibition at 5 μM is reported as score 3; details: tested at 20 μM and 5 μM
How it was run: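 Cytoskeleton kit tubulin was run in a 10 µl final volume at 37 °C, with fluorescence read every minute for 1 h. Polymerization was taken as the maximum slope (4-point linear regression) and expressed as % of no-compound control. Compounds were tested at 20 µM, then at 5 µM if inhibition exceeded 50%, and scored by % inhibition.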

PC3 cells = assay: EB1 Comet (microtubule disruption) assay; format: cell-based, human; details: Homo sapiens, PC-3, 1 h, 1 hour treatment, read-out: EB1 pLAC (converted)
How it was run: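 Readout is loss of Eb1 plus-end foci, scored by immunofluorescence microscopy, in PC3 cells after 1 h compound treatment at 37 °C with 0.6% final DMSO. LAC is defined as the lowest concentration leaving at least 50% of cells without Eb1 foci.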

T1 sequence (P09874 whole entry): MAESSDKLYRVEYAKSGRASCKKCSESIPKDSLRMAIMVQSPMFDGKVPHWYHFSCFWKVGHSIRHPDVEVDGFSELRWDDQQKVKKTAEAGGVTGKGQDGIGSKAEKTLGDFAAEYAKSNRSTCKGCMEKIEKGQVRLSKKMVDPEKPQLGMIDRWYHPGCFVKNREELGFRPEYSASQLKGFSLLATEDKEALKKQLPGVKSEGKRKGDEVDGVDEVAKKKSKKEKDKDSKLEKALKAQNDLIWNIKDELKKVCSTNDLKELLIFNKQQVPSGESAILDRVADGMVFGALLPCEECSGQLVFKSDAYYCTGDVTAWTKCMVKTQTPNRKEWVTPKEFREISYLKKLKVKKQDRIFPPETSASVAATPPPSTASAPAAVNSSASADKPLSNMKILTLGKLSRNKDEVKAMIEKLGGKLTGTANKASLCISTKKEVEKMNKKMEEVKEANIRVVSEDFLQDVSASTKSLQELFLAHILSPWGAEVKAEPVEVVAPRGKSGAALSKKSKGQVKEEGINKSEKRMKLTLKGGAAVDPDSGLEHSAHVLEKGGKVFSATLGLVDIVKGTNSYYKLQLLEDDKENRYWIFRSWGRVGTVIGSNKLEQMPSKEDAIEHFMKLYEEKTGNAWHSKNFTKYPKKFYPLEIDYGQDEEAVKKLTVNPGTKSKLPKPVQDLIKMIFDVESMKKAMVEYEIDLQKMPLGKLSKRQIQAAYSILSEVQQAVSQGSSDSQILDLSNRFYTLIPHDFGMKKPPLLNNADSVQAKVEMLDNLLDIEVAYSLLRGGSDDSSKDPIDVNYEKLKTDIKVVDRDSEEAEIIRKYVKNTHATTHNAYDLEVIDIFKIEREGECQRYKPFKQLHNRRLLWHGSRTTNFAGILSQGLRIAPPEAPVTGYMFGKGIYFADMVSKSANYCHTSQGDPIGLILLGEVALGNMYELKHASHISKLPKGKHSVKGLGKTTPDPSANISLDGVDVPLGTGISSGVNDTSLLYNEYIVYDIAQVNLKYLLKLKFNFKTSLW

melting point	IC50 (Human PARP-1 enzyme)	SMILES	tubulin polymerisation score (tubulin)	minimal effective concentration (PC3 cells)
180 °C	39.8 nM	CCc1cc2ccc(C(C)(C#N)Cc3nc(C#N)cc(OC)n3)cc2[nH]c1=O (single isomer, unassigned) [Compound 204]	–	–
–	79.4 nM	CCc1cc2ccc([C@@](C)(C#N)CCOc3ccc(C#N)cc3)cc2[nH]c1=O (single isomer, unassigned) [Compound 273]	2	0.1 µM
–	126 nM	Cc1cc2ccc([C@](C)(C#N)C3CCc4ccccc43)cc2[nH]c1=O (single isomer, unassigned) [Compound 386]	2	0.316 µM
50 °C	1580 nM	CCc1cc2ccc(C(C)(C#N)Cc3cccc(OCCCN4CCNCC4)c3)cc2[nH]c1=O (centres unmarked) [Compound 25]	–	> 10 µM
255 °C	1580 nM	CCc1cc2ccc(C(C#N)(Cc3ccccc3)c3ccc(C#N)cc3)cc2[nH]c1=O (centres unmarked) [Compound 26]	–	> 10 µM
229 °C	1000 nM	CCc1cc2ccc(C(C#N)(Cc3ccccc3)c3ccccc3)cc2[nH]c1=O (centres unmarked) [Compound 27]	–	10 µM
186 °C	631 nM	CCc1cc2ccc(C(C#N)(Cc3ccccc3)C3CC3)cc2[nH]c1=O (centres unmarked) [Compound 29]	–	1 µM
234 °C	3160 nM	CCc1cc2ccc(C(C#N)(Cc3ccccc3)C(C)C)cc2[nH]c1=O (centres unmarked) [Compound 30]	–	3.16 µM
210 °C	2000 nM	CCCC(C#N)(Cc1ccccc1)c1ccc2cc(CC)c(=O)[nH]c2c1 (centres unmarked) [Compound 31]	–	10 µM
160 °C	20 nM	CCc1cc2ccc(C(C)(C#N)Cc3cc(OC)ccc3F)cc2[nH]c1=O (centres unmarked) [Compound 171]	–	0.1 µM
194 °C	50.1 nM	CCc1cc2ccc(C(C)(C#N)Cc3cccc(-c4ccc[nH]4)c3)cc2[nH]c1=O (centres unmarked) [Compound 176]	–	1 µM
150 °C	63.1 nM	CCc1cc2ccc(C(C)(C#N)Cc3cccc(CCS(C)(=O)=O)c3)cc2[nH]c1=O (centres unmarked) [Compound 178]	–	3.16 µM
170 °C	20 nM	CCc1cc2ccc(C(C)(C#N)Cc3cccc(/C=N/OC)c3)cc2[nH]c1=O (centres unmarked) [Compound 185]	–	0.1 µM
148 °C	25.1 nM	CCc1cc2ccc(C(C)(C#N)Cc3cccc(OCCCC#N)c3)cc2[nH]c1=O (centres unmarked) [Compound 194]	2	1 µM
161 °C	39.8 nM	CCc1cc2ccc(C(C)(C#N)Cc3cccc(OCCC#N)c3)cc2[nH]c1=O (centres unmarked) [Compound 195]	1 (a compound showing 0 to 50% inhibition at 20 μM is reported as score 1)	0.0316 µM
141 °C	25.1 nM	C#CCOc1cccc(CC(C)(C#N)c2ccc3cc(CC)c(=O)[nH]c3c2)c1 (centres unmarked) [Compound 196]	2	–
55 °C	25.1 nM	CCc1cc2ccc(C(C)(C#N)Cc3cccc(OCCS(C)(=O)=O)c3)cc2[nH]c1=O (centres unmarked) [Compound 201]	–	0.562 µM
162 °C	79.4 nM	CCc1cc2ccc(C(C)(C#N)Cc3nc(Cl)cc(OC)n3)cc2[nH]c1=O (centres unmarked) [Compound 202]	2	–

melting point	IC50 (Human PARP-1 enzyme)	SMILES	tubulin polymerisation score (tubulin)	minimal effective concentration (PC3 cells)
194 °C	79.4 nM	CCc1cc2ccc(C(C)(C#N)Cc3nc(N(C)C)cc(N(C)C)n3)cc2[nH]c1=O (centres unmarked) [Compound 205]	–	1 µM
154 °C	50.1 nM	CCc1cc2ccc(C(C)(C#N)Cc3cccc(N4CCC(N(C)C)C4)n3)cc2[nH]c1=O (centres unmarked) [Compound 209]	–	0.316 µM
111 °C	79.4 nM	CCc1cc2ccc(C(C)(C#N)Cc3cccc(C#Cc4cncn4C)n3)cc2[nH]c1=O (centres unmarked) [Compound 217]	–	1 µM
99 °C	398 nM	CCc1cc2ccc(C(C)(C#N)Cc3cccc(N(C)CCc4ccccc4)n3)cc2[nH]c1=O.Cl (centres unmarked) [Compound 220]	–	3.16 µM
121 °C	50.1 nM	CCc1cc2ccc(C(C)(C#N)Cc3cccc(C#N)[n+]3[O-])cc2[nH]c1=O (centres unmarked) [Compound 228]	–	0.562 µM
180 °C	63.1 nM	CCc1cc2c(OC)cc(C(C)(C#N)Cc3nc(OC)cc(OC)n3)cc2[nH]c1=O (centres unmarked) [Compound 229]	–	3.16 µM
209 °C	50.1 nM	CCc1cc2ccc(C(C)(C#N)CN3CCN(c4ccccn4)CC3)cc2[nH]c1=O (centres unmarked) [Compound 233]	1 (a compound showing 0 to 50% inhibition at 20 μM is reported as score 1)	1 µM
210 to 211 °C	25.1 nM	CCc1cc2ccc(C(C)(C#N)Cc3cccc4c3CCN4)cc2[nH]c1=O (centres unmarked) [Compound 237]	–	3.16 µM
–	50.1 nM	CCOc1cccc(CC(C)(C#N)c2ccc3cc(CC)c(=O)[nH]c3c2)c1 (centres unmarked) [Compound 285]	2	0.316 µM
–	158 nM	CCc1cc2ccc(C(C)(C#N)Cc3cc(OC)c(OC)c(OC)c3)cc2[nH]c1=O (centres unmarked) [Compound 289]	2	0.0316 µM
–	158 nM	CCc1cc2ccc(C(C)(C#N)CN(C)Cc3ccc(C#N)cc3)cc2[nH]c1=O (centres unmarked) [Compound 300]	1 (a compound showing 0 to 50% inhibition at 20 μM is reported as score 1)	0.1 µM
–	100 nM	CCc1cc2ccc(C(C)(C#N)Cc3nc(C#N)cc(OC)n3)cc2[nH]c1=O (centres unmarked) [Compound 313]	2	0.0316 µM
–	50.1 nM	CCc1cc2ccc(C(C)(C#N)Cc3cc(C#N)nc(OC)c3)cc2[nH]c1=O (centres unmarked) [Compound 314]	1 (a compound showing 0 to 50% inhibition at 20 μM is reported as score 1)	1 µM
–	79.4 nM	CCc1cc2ccc(C(C)(C#N)Cc3nc(C#N)cc(N(C)C)n3)cc2[nH]c1=O (centres unmarked) [Compound 318]	1 (a compound showing 0 to 50% inhibition at 20 μM is reported as score 1)	0.316 µM
–	200 nM	CCc1cc2ccc(C(C)(C#N)Cc3cc(C#N)nc(C)n3)cc2[nH]c1=O (centres unmarked) [Compound 319]	2	1 µM
–	39.8 nM	CCc1cc2ccc(C(C)(C#N)Cc3cc(OC)nc(OC)c3)cc2[nH]c1=O (centres unmarked) [Compound 350]	2	1 µM
–	158 nM	CCc1cc2ccc(C(C)(C#N)CN3CCC(c4ccccc4)CC3)cc2[nH]c1=O (centres unmarked) [Compound 375]	1 (a compound showing 0 to 50% inhibition at 20 μM is reported as score 1)	0.316 µM
–	50.1 nM	CCc1cc2ccc(C(C)(C#N)CN3CCN(c4ccc(C#N)cn4)CC3)cc2[nH]c1=O (centres unmarked) [Compound 377]	1 (a compound showing 0 to 50% inhibition at 20 μM is reported as score 1)	1 µM

Source: patent US8778966B2, “Quinolinone derivatives as PARP and tank inhibitors” (Janssen Pharmaceutica, NV, priority 2007, dated 2014)
